From publication doi:10.1101/2025.08.01.668199, “Vacuolar Phosphatidylinositol 3,4,5-trisphosphate controls fusion through binding Vam7, and membrane microdomain assembly” (bioRxiv, 2025)

Assays:
Vam7 = target: T1, Vam7 (Saccharomyces cerevisiae, UniProt P32912); assay: bio-layer interferometry, biotinylated lipid on streptavidin probe; type: binding
T1 construct: GST-Vam7
T1 sequence (P32912 1-316): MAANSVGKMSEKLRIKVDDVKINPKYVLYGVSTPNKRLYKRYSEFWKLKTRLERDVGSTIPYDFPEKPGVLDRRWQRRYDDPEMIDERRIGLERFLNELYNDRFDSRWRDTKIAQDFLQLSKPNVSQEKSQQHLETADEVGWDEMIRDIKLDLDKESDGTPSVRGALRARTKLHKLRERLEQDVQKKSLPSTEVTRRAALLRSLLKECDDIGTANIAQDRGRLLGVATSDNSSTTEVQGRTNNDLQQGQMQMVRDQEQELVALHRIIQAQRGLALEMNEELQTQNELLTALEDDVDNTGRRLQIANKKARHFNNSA

Vam7^Y42A = target: T2, Vam7^Y42A (Saccharomyces cerevisiae, UniProt P32912, Y42A); assay: as above; type: binding
T2 construct: GST-Vam7^Y42A
T2 sequence (P32912 whole entry Y42A): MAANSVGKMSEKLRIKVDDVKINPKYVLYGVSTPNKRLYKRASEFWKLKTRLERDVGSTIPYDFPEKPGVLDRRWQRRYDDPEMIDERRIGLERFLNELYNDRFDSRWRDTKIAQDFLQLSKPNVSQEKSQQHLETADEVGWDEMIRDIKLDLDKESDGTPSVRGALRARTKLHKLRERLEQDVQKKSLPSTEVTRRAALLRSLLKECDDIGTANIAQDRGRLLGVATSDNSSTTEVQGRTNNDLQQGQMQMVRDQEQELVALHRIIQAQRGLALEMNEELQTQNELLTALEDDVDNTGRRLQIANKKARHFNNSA

| Substance | Kd (Vam7) [nM] | Kd (Vam7^Y42A) [nM] |
| --- | --- | --- |
| PI3P | ~200 |  |
| PI(3,4,5)P3 | ~70 | ~210 |
